{"source": "patent US20030161866A1", "about": "“Novel pharmaceutical formulation to limit or delay surface absorption” (priority 2000, published 2003)", "key": {"[1]": {"details": "within two hours of administration; cited from earlier work"}, "[2]": {"assay": "Evaporation (weight loss) of DEET/IPA/clay samples under nitrogen", "format": "physicochemical", "details": "no added IPA, over 12 hours under nitrogen, relative to amount of DEET", "procedure": "The samples prepared above were held at room temperature in the hood under nitrogen over a 12 hour period. Evaporation rates were measured every hour.\nSamples of the HDTMA clay/DEET/IPA matrix were mixed as illustrated in Example 1. Volatile components of the matrix were evaporated using a constant flow of nitrogen over 12 hours in fume hood. Control samples of DEET with IPA only and DEET alone were subjected to the same conditions as the DEET with HDTMA treated clay.\nWeight loss of the samples over 12 hours was used as a measure of the extent of evaporation. Samples were weighed at the beginning of the experiment (time 0) and at hourly intervals thereafter. Reported values are the difference between the original weight of formulation and the weight at sampling time, expressed as a percentage of the amount of IPA added to each. For the controls without IPA, percent weight loss was calculated relative to the amount of DEET in the original sample."}, "[3]": {"details": "24 hours after administration of the last dose; cited from earlier work"}, "[4]": {"assay": "Visual (turbidity) solubility of DEET in IPA and water", "format": "physicochemical", "details": "aqueous with cosolvent or surfactant or cyclodextrin, thermodynamic from solid, read-out: limit of DEET solubility", "procedure": "Homogenous solutions of different concentrations of DEET with varying percentages of IPA in water were prepared and subsequently incorporated into the clay. Solutions of 30%, 40%, and 50% IPA in water were prepared. DEET was completely miscible with IPA, which was also completely miscible with water. The addition of DEET to the solvent mixture was therefore expected to produce a single homogenous phase within the limits of its solubility. Solutions were prepared consisting of the solvent systems and varying concentrations of DEET, from 12.5-200 mg/ml. DEET was added to the solvent in increments of 50 mg until the solution appeared turbid after vortexing for 5 seconds. Turbidity was used as a marker for saturation.\nOnce various solvents were mixed with DEET, turbidity of the samples was used as a marker for saturation. All DEET spiking solutions were below saturation point."}}, "note": "Read-outs that look alike come from different tables or passages of the source.", "data": [{"molecule": "CCN(CC)C(=O)c1cccc(C)c1", "note": "[DEET, N,N-diethyl-m-toluamide]", "values": [{"measurement": "dose administered topically that is absorbed", "setting": "[1]", "result": "Approximately 17%"}, {"measurement": "weight loss", "setting": "[2]", "result": 4, "unit": "%"}, {"measurement": "absorbed dose recovered in the urine", "setting": "[3]", "result": "~90", "unit": "%"}, {"measurement": "solubility at 5 seconds", "setting": "[4]; 30% IPA in water, 30% IPA in water", "result": 115, "unit": "mg/mL"}, {"measurement": "solubility at 5 seconds", "setting": "[4]; 40% IPA in water, 40% IPA in water", "result": 200, "unit": "mg/mL"}, {"measurement": "solubility at 5 seconds", "setting": "[4]; 50% IPA in water, 50% IPA in water", "result": 200, "unit": "mg/mL"}]}]}
